Data as given in patent US12605419B2, “Flavonoid extract of Cyclocarya paliurus leaves and antibacterial drugs and/or antibacterial agents containing thereof” (priority 2020, dated 2026).
Read-outs that look alike come from different tables or passages of the source.

Legend:
[1] = test system: MRSA-1; assay: Sensitivity test (MIC, broth dilution per CLSI); format: cell-based, Methicillin-resistant S. aureus; conditions: strain MRSA-1, MHB with 2% NaCl, 34° C., 24 hours, minimum concentration without colony growth
Protocol: (§1) By referring to the methods and standards of the American Clinical and Laboratory Standards Institute (CLSI) for antimicrobial susceptibility testing, the drug resistance of each strain was verified. The MHB medium used in this test contained 2% NaCl (w/v).
(§2) Preparation of test bacteria: each bacterium was respectively inoculated in 5 ml MHB medium, and cultured overnight at 37° C. on a shaker. The bacterial solution was adjusted to 0.5 McFarland turbidity (MCF) unit, and further diluted by 100 folds. The final bacterial concentration was 5×10^5 cfu/ml.
(§3) Preparation of the flavonoids extract of C. paliurus leaves for application: 79.8 mg powder of the flavonoid extract from C. paliurus leaves prepared in Example 1 (based on the flavonoids proportion of 67.3581 wt. % in the flavonoids extract of C. paliurus leaves, the amount of flavonoids in the powder was 53.75 mg) was dissolved in 0.32 ml of DMSO, and further diluted with 3.68 ml MHB medium, to obtain the application solution of C. paliurus leaf with a flavonoids concentration at 13.44 mg/ml.
(§4) 100 μl of medium was added into the second well, and serial 2-fold dilutions were prepared until to the ninth well. The 10th well was set as the medium control.
(§5) Sensitivity test: 100 μl of the bacterial solution prepared above was added to the wells with serial concentration of drugs and the medium control. The plate was placed in a humidified box and incubated at 34° C. for 24 hours. 20 μl of each bacterial solution was taken and diluted 50 times with the medium, then 100 μl of the diluted bacterial solution was spread on the culture plate and incubated overnight at 37° C. The minimum drug concentration without colony growth was determined as the minimum inhibitory concentration (MIC).

[2] = test system: MRSA-3; assay: Sensitivity test (MIC, broth dilution per CLSI); format: cell-based, Methicillin-resistant S. aureus; conditions: strain MRSA-3, MHB with 2% NaCl, 34° C., 24 hours, minimum concentration without colony growth
Protocol: as §1, §2, §3, §4, §5

[3] = test system: MRSA-5; assay: Sensitivity test (MIC, broth dilution per CLSI); format: cell-based, Methicillin-resistant S. aureus; conditions: strain MRSA-5, MHB with 2% NaCl, 34° C., 24 hours, minimum concentration without colony growth
Protocol: as §1, §2, §3, §4, §5

[4] = test system: MRSA-2; assay: Sensitivity test (MIC, broth dilution per CLSI); format: cell-based, Methicillin-resistant S. aureus; conditions: strain MRSA-2, MHB with 2% NaCl, 34° C., 24 hours, minimum concentration without colony growth
Protocol: as §1, §2, §3, §4, §5

[5] = test system: MRSA-4; assay: Sensitivity test (MIC, broth dilution per CLSI); format: cell-based, Methicillin-resistant S. aureus; conditions: Staphylococcus aureus; strain MRSA-4; MHB with 2% NaCl, 34° C., 24 hours; minimum concentration without colony growth
Protocol: Sensitivity test: 100 μl of the bacterial solution prepared above was added to the wells with serial concentration of drugs and the medium control. The plate was placed in a humidified box and incubated at 34° C. for 24 hours. […] The minimum drug concentration without colony growth was determined as the minimum inhibitory concentration (MIC).

[6] = test system: S. aureus ATCC25923; assay: Sensitivity test (MIC, broth dilution per CLSI); format: cell-based; conditions: strain ATCC25923, MHB with 2% NaCl, 34° C., 24 hours, minimum concentration without colony growth
Protocol: as §1, §2
as §3, with “mg/ml. […]” for “mg/ml.”
(§6) Sensitivity test: 100 μl of the bacterial solution prepared above was added to the wells with serial concentration of drugs and the medium control. […] The minimum drug concentration without colony growth was determined as the minimum inhibitory concentration (MIC).

[7] = test system: MRSA strains; assay: Sensitivity test, MRSA strains compared with ATCC25923; format: cell-based, Methicillin-resistant S. aureus; conditions: each MRSA strain vs ATCC25923
Protocol: as §1, §2
as §3, with “mg/ml. […]” for “mg/ml.”
as §6

[8] = Staphylococcus aureus, read-out: MIC

| Structure (SMILES) | MIC [1, 8] [µg/mL] | MIC [2, 8] [µg/mL] | MIC [3, 8] [µg/mL] | MIC [4, 8] [µg/mL] | MIC [5] [µg/mL] | MIC [6, 8] [µg/mL] | Sensitivity of each MRSA strain compared with S. aureus ATCC25923 [7] | MIC [1] [µg/mL] | MIC [2] [µg/mL] | MIC [3] [µg/mL] | MIC [4] [µg/mL] | MIC [6] [µg/mL] |
| --- | --- | --- | --- | --- | --- | --- | --- | --- | --- | --- | --- | --- |
| CC1(C)S[C@@H]2[C@H](NC(=O)Cc3ccccc3)C(=O)N2[C@H]1C(=O)O [penicillin sodium] | 4 | 1 | 4 | 1 | 32 | 0.0312 | lower than that of the standard strain of S. aureus ATCC25923 |  |  |  |  |  |
| Cc1onc(-c2ccccc2)c1C(=O)N[C@@H]1C(=O)N2[C@@H]1SC(C)(C)[C@@H]2C(=O)[O-].[Na+] [oxacillin sodium] |  |  |  |  |  |  | lower than that of the standard strain of S. aureus ATCC25923 | 0.5 | 0.5 | 0.5 | 0.5 | 0.125 |
